Laboratory results reported in patent US20250042894A1, “PROTEIN TYROSINE PHOSPHATASE INHIBITORS AND METHODS OF USE THEREOF” (Calico Life Sciences LLC, priority 2021, published 2025).

Tests used:
[1] = biological target: T1, His tagged full-length PTPN1 protein (Homo sapiens, UniProt P18031); assay: Mobility Shift Assay (MSA) for PTPN1 inhibitors; format: biochemical; details: enzyme 0.5 nM, substrate 2 μM, 10 minutes preincubation at room temperature
T1 construct: His; made in house
T1 sequence (P18031 1-435): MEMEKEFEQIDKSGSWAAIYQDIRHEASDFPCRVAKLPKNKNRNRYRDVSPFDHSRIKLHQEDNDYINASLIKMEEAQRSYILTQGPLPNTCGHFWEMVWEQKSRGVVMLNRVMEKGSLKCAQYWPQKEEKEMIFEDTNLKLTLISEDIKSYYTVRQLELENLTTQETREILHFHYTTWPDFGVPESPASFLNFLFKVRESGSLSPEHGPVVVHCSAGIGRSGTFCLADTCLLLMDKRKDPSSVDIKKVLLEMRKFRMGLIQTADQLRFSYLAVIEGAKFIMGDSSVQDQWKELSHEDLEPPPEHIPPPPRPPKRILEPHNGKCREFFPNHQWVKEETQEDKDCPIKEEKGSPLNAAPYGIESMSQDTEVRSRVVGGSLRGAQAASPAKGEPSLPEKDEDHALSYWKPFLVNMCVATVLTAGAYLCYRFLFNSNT
Method: Example 44: Mobility Shift Assay (MSA) Used to Determine Potency of PTPN1 Inhibitors
Compound activity was determined using in house His tagged full-length PTPN1 protein (SEQ ID NO: 3) in an in vitro enzymatic reaction. The enzymatic assay used to determine activity is a mobility shift assay using a LabChip EZ Reader by Caliper Life Sciences. The enzymatic reaction was carried out in assay buffer (50 mM HEPES pH 7.5, 1 mM EGTA, 10 mM EDTA, 0.010% Tween® 20, and 2 mM DTT). The compounds were dispensed on a white 384 well ProxiPlate™ (PerkinElmer Cat #6008289) plate using a Labcyte Echo® liquid handler at varying concentrations (12 point, 1:3 dilution). The enzyme (at 0.5 nM) was incubated with compound for 10 minutes at room temperature. Thereafter, the substrate (phosphorylated insulin receptor probe sequence: ((OG488)-(NH—CH2—CH2—O—CH2—CH2—O—CH2—CO)-T-R-D-I—(PY)-E-T-D-Y—Y—R—K—K—NH2) (SEQ ID NO: 2) was added at 2 μM to the plates and incubated for another 10 minutes at room temperature. Finally, a quench solution (water and 4-bromo-3-(2-oxo-2-propoxyethoxy)-5-(3-{[1-(phenylmethanesulfonyl)piperidin-4-yl]amino}phenyl)thiophene-2-carboxylic acid) was added to the plates, which were then run on the EZ Reader (excitation 488 nm, emission 530 nm) to measure % conversion (the amount of phosphorylated substrate which was de-phosphorylated by PTPN1). […] The % inhibition was then used to calculate the IC50 values.

[2] = biological target: T2, His tagged PTPN2 (TC45) protein (Homo sapiens, UniProt P17706); assay: Mobility Shift Assay (MSA) for PTPN2 inhibitors; format: biochemical; details: enzyme 0.5 nM, substrate 2 μM, 10 minutes preincubation at room temperature
T2 construct: His; made in house
T2 sequence (P17706 1-387 isoform P17706-2): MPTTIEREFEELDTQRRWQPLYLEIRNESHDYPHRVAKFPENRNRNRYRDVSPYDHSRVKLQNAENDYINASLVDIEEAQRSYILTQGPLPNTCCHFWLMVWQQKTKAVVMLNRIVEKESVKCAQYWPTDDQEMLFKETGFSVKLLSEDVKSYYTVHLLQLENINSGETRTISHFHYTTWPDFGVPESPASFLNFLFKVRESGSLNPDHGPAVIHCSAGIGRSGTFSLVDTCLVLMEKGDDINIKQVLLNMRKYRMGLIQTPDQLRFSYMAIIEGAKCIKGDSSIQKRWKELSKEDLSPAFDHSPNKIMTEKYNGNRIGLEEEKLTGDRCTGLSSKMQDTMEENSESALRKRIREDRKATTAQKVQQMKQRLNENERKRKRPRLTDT
Method: Example 43: Mobility Shift Assay (MSA) Used to Determine Potency of PTPN2 Inhibitors
Compound activity was determined using in house His tagged PTPN2 (TC45) protein (SEQ ID NO: 1) in an in vitro enzymatic reaction. The enzymatic assay used to determine activity was a mobility shift assay using a LabChip EZ Reader by Caliper Life Sciences. The enzymatic reaction was carried out in assay buffer (50 mM HEPES pH 7.5, 1 mM EGTA, 10 mM EDTA, 0.01% Tween® 20, and 2 mM DTT). The compounds were dispensed on a white 384 well ProxiPlate™ (PerkinElmer Catalog #6008289) plate using the Labcyte Echo at varying concentrations (12 point, 1:3 dilution). The enzyme (at 0.5 nM) was incubated with compound for 10 minutes at room temperature. Thereafter, the substrate (phosphorylated insulin receptor probe sequence: ((OG488)-(NH—CH2—CH2—O—CH2—CH2—O—CH2—CO)-T-R-D-I—(PY)-E-T-D-Y—Y—R—K—K—NH2) (SEQ ID NO: 2) was added at 2 μM to the plates and incubated for another 10 minutes at room temperature. Finally, a quench solution (water and 4-bromo-3-(2-oxo-2-propoxyethoxy)-5-(3-{[1-(phenylmethanesulfonyl)piperidin-4-yl]amino}phenyl)thiophene-2-carboxylic acid) was added to the plates, which were then run on the EZ Reader (excitation 488 nm, emission 530 nm) to measure % conversion (the amount of phosphorylated substrate which was de-phosphorylated by PTPN2). […] The % inhibition was then used to calculate the IC50 values.

[3] = system: IFNγ-induced STAT1 phosphorylation (pSTAT1) in B16F10 cells; assay: B16F10 Phospho-STAT1 HTRF proximal pharmacodynamic (PD) assay; format: cell-based, murine; details: B16-F10; Table 2; 3 hours compound, then mouse IFNγ 100 nM 10 minutes; top dose 50 μM; read-out: B16F10 IFNγ Induced pSTAT1 EC50
Method: Example 45: B16F10 (Murine Melanoma Cells) Phospho-STAT1 HTRF Proximal Pharmacodynamic (PD) Assay
B16F10 cells were grown and maintained in high glucose DMEM (Gibco, Catalog #11965-092, Dun Laoghaire Co Dublin) supplemented with 10% fetal bovine serum (Gibco, Catalog #10082-139, Dun Laoghaire Co Dublin). The cells were pelleted and resuspended in high glucose DMEM without phenol red (Gibco, Catalog #11054-020, Dun Laoghaire Co Dublin), supplemented with 10% fetal bovine serum and plated in a 384 well Corning plate (product #3765, Corning, NY) at 11,000 cells per well in a volume of 20 μL. The cells were dosed with the compounds of interest using an Echo Liquid Handler (Beckman Coulter, Brea, CA) at 50 μM top dose with 3-fold dilutions down to 0.002679 μM for a 10-point dose response. The plate was incubated for 3 hours at 37° C. and subsequently treated with recombinant mouse IFNγ (R&D Systems, Catalog #485-MI, Minneapolis, MN; 100 nM final concentration) for 10 minutes at 37° C. to induce STAT1 phosphorylation followed by 3.3 μM staurosporine treatment for 1 hour at 37° C. to terminate phosphorylation. Media was then aspirated and 20 μL of 1× lysis buffer/blocking reagent (Cisbio Phospho-STAT1 kit, part #63ADK026PEH, Bedford, MA) was added. The plate was placed on a plate shaker for 30 minutes at room temperature, sealed, and stored at −80° C. until needed. To thaw, the plate was placed on shaker at room temperature until completely thawed while the antibody master mix was made (1:40 Phospho-STAT1 Eu Cryptate antibody, 1:40 Phospho-STAT1 d2 antibody, with the detection buffer; Cisbio Phospho-STAT1 kit, part #63ADK026PEH, Bedford, MA). The antibody master mix was then dispensed at 4 μL per well into a 384 ProxiPlate Plus (PerkinElmer, part #6008289, Waltham, MA) and 16 μL of lysate was added from the Corning plate to the Proxiplate using a VIAFLO 384 (INTEGRA). The plate was incubated for 3 hours at room temperature and read on an EnVision® (Perkin Elmer) plate reader with laser excitation at 335 nm and emission at 665 nm. Dotmatics Studies (Bishop's Stortford, UK) was utilized to generate all dose-response curves and calculate EC50s and are shown in Table 2.

| IC50 [1] | EC50 [3] | SMILES | IC50 [2] |
| --- | --- | --- | --- |
| > 0.1 µM | 17.2 µM | CC(C)N[C@@H]1CSc2cc(O)c(N3CC(=O)NS3(=O)=O)c(F)c2C1 [Compound 116, 5-{(3S)-5-fluoro-7-hydroxy-3-[(propan-2-yl)amino]-3,4-dihydro-2H-1-benzothiopyran-6-yl}-1λ^6,2,5-thiadiazolidine-1,1,3-trione] | 0.01 to 0.1 µM |
| 0.01 to 0.1 µM | 0.723 µM | O=C1CN(c2c(O)cc3c(c2F)C[C@H](NCCC2CC(F)(F)C2)CS3)S(=O)(=O)N1 [Compound 117, 5-[(3S)-3-{[2-(3,3-difluorocyclobutyl)ethyl]amino}-5-fluoro-7-hydroxy-3,4-dihydro-2H-1-benzothiopyran-6-yl]-1λ^6,2,5-thiadiazolidine-1,1,3-trione] | < 0.01 µM |
| < 0.01 µM | 4.22 µM | O=C1CN(c2c(O)cc3c(c2F)C[C@H](NCCC2CCCCC2)CS3)S(=O)(=O)N1 [Compound 118, 5-{(3S)-3-[(2-cyclohexylethyl)amino]-5-fluoro-7-hydroxy-3,4-dihydro-2H-1-benzothiopyran-6-yl}-1λ^6,2,5-thiadiazolidine-1,1,3-trione] | < 0.01 µM |
| 0.01 to 0.1 µM | 6.66 µM | CCC(CC)CCN[C@@H]1CSc2cc(O)c(N3CC(=O)NS3(=O)=O)c(F)c2C1 [Compound 119, 5-{(3S)-3-[(3-ethylpentyl)amino]-5-fluoro-7-hydroxy-3,4-dihydro-2H-1-benzothiopyran-6-yl}-1λ^6,2,5-thiadiazolidine-1,1,3-trione] | < 0.01 µM |
| < 0.01 µM | 1.01 µM | O=C1CN(c2c(O)cc3c(c2F)C[C@H](NCCC2CCCC2)CS3)S(=O)(=O)N1 [Compound 120, 5-{(3S)-3-[(2-cyclopentylethyl)amino]-5-fluoro-7-hydroxy-3,4-dihydro-2H-1-benzothiopyran-6-yl}-1λ^6,2,5-thiadiazolidine-1,1,3-trione] | < 0.01 µM |
| 0.01 to 0.1 µM | 8.15 µM | O=C1CN(c2c(O)cc3c(c2F)C[C@H](NCc2ccccc2)CS3)S(=O)(=O)N1 [Compound 121, 5-[(3S)-3-(benzylamino)-5-fluoro-7-hydroxy-3,4-dihydro-2H-1-benzothiopyran-6-yl]-1λ^6,2,5-thiadiazolidine-1,1,3-trione] | 0.01 to 0.1 µM |
| 0.01 to 0.1 µM | 6.39 µM | CC(C)=CCN[C@@H]1CSc2cc(O)c(N3CC(=O)NS3(=O)=O)c(F)c2C1 [Compound 122, 5-{(3S)-5-fluoro-7-hydroxy-3-[(3-methylbut-2-en-1-yl)amino]-3,4-dihydro-2H-1-benzothiopyran-6-yl}-1λ^6,2,5-thiadiazolidine-1,1,3-trione] | 0.01 to 0.1 µM |
| 0.01 to 0.1 µM | 2.76 µM | O=C1CN(c2c(O)cc3c(c2F)C[C@H](NCCc2ccccc2)CS3)S(=O)(=O)N1 [Compound 123, 5-{(3S)-5-fluoro-7-hydroxy-3-[(2-phenylethyl)amino]-3,4-dihydro-2H-1-benzothiopyran-6-yl}-1λ^6,2,5-thiadiazolidine-1,1,3-trione] | < 0.01 µM |
| 0.01 to 0.1 µM | 6.94 µM | CCC(C)(C)CCN[C@@H]1CSc2cc(O)c(N3CC(=O)NS3(=O)=O)c(F)c2C1 [Compound 124, 5-{(3S)-3-[(3,3-dimethylpentyl)amino]-5-fluoro-7-hydroxy-3,4-dihydro-2H-1-benzothiopyran-6-yl}-1λ^6,2,5-thiadiazolidine-1,1,3-trione] | < 0.01 µM |
| 0.01 to 0.1 µM | > 50 µM | O=C1CN(c2c(O)cc3c(c2F)C[C@H](NCC2(F)CC2)CS3)S(=O)(=O)N1 [Compound 125, 5-[(3S)-5-fluoro-3-{[(1-fluorocyclopropyl)methyl]amino}-7-hydroxy-3,4-dihydro-2H-1-benzothiopyran-6-yl]-1λ^6,2,5-thiadiazolidine-1,1,3-trione] | 0.01 to 0.1 µM |
| 0.01 to 0.1 µM | 25.5 µM | O=C1CN(c2c(O)cc3c(c2F)C[C@H](NCC2CC2(F)F)CS3)S(=O)(=O)N1 (stereo partly drawn) [Compound 126, 5-[(3S)-3-{[(2,2-difluorocyclopropyl)methyl]amino}-5-fluoro-7-hydroxy-3,4-dihydro-2H-1-benzothiopyran-6-yl]-1λ^6,2,5-thiadiazolidine-1,1,3-trione] | 0.01 to 0.1 µM |
| 0.01 to 0.1 µM | 8.97 µM | CC1(CN[C@@H]2CSc3cc(O)c(N4CC(=O)NS4(=O)=O)c(F)c3C2)COC1 [Compound 127, 5-[(3S)-5-fluoro-7-hydroxy-3-{[(3-methyloxetan-3-yl)methyl]amino}-3,4-dihydro-2H-1-benzothiopyran-6-yl]-1λ^6,2,5-thiadiazolidine-1,1,3-trione] | 0.01 to 0.1 µM |
